Our source for the IC50 values is US20060270880A1, “7-Azaindole derivatives as cox2 inhibitors” (priority 2003, published 2006).

The test deals with T1, microsomal h-COX2 (Homo sapiens, UniProt P35354).
T1 construct: made in house; host or cells: baculovirus infected SF9 cells (microsomal preparation)
T1 sequence (P35354 18-604): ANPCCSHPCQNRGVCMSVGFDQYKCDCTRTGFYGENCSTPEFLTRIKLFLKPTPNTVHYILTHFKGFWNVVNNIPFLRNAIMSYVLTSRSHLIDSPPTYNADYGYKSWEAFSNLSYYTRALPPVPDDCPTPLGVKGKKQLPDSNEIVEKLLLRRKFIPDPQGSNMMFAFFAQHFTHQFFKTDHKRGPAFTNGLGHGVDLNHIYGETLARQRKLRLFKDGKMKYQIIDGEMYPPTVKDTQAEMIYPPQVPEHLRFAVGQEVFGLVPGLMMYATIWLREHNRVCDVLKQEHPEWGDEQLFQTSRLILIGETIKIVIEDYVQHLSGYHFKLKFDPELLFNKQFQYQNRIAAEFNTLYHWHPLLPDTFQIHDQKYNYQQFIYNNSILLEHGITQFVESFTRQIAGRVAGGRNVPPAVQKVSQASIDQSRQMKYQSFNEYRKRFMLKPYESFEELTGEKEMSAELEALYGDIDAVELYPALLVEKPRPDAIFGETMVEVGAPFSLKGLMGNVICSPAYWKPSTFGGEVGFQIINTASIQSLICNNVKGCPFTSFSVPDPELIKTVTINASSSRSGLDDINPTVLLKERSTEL
Put plainly: Microsomal assay: inhibition of microsomal h-COX2 (PGE2 by EIA). Format: biochemical. Conditions: microsomal preparation from baculovirus infected SF9 cells; 1 hour preincubation; 0.1 μM arachidonic acid, 10 minutes; read-out: IC50 values for inhibition of COX-2. The protocol:
Inhibitory activity against microsomal h-COX2 was assessed against a microsomal preparation from baculovirus infected SF9 cells. An aliquot of microsomal preparation was thawed slowly on ice and a 1/40,000 dilution prepared from it into the assay buffer (sterile water, degassed with argon containing 100 mM HEPES (pH 7.4), 10 mM EDTA (pH7.4), 1 mM phenol, 1 mM reduced glutathione, 20 mg/ml gelatin and 0.001 mM Hematin). Once diluted the enzyme solution was then sonicated for 5 seconds (Branson sonicator, setting 4, 1 cm tip) to ensure a homogeneous suspension. 155 μl enzyme solution was then added to each well of a 96-well microtitre plate containing either 5 μl test und (40× required test concentration) or 5 μl DMSO for controls. Plates were then mixed and incubated at room temperature for 1 hour. Following the incubation period, 40 μl of 0.5 μM arachidonic acid was added to each well to give a final concentration of 0.1 μM. Plates were then mixed and incubated for exactly 10 minutes (room temperature) prior to addition of 25 μl 1M HCl (hydrochloric acid) to each well to stop the reaction. 25 μl of 1M NaOH (sodium hydroxide) was then added to each well to neutralise the solution prior to determination of PGE2 levels by enzyme immunoassay (EIA).

By IC50 is commonly meant the concentration needed to halve the response being measured. In the case of `CS(=O)(=O)c1ccc(-c2ccc3ccn(CC4CCCCC4)c3n2)cc1` [Example 1, 1-(cyclohexanemethyl)-6-[4-(methylsulfonyl)phenyl]-7-azaindole], the IC50 was not above 0.5 µM.
As for `CS(=O)(=O)c1ccc(-c2ccc3ccn(-c4ccccc4)c3n2)cc1` [Example 2, 1-Phenyl-6-[4-(methylsulfonyl)phenyl]-7-azaindole], the figure is not above 0.5 µM.
Turning to `CC(C)Cc1cn(CC2CCCCC2)c2nc(-c3ccc(S(C)(=O)=O)cc3)ccc12` [Example 3, 1-(cyclohexanemethyl)-3-(2-methylprop-1-yl)-6-[4-(methylsulfonyl)phenyl]-7-azaindole], the IC50 is not above 0.5 µM.
On to `CS(=O)(=O)c1ccc(-c2ccc3c(C=O)cn(CC4CCCCC4)c3n2)cc1` [Example 4, 1-(cyclohexanemethyl)-6-[4-(methylsulfonyl)phenyl]-7-azaindole-3-carboxaldehyde], for which the IC50 is not above 0.5 µM.
For the molecule `Cc1cn(CC2CCCCC2)c2nc(-c3ccc(S(C)(=O)=O)cc3)ccc12` [Example 6, 1-{cyclohexanemethyl)-3-methyl-6-[4-(methylsulfonyl)phenyl]-7-azaindole], the IC50 is not above 0.5 µM.
Consider `CS(=O)(=O)c1ccc(-c2ccc3ccn(S(=O)(=O)c4ccccc4)c3n2)cc1` [Example 9], for which the IC50 was not above 0.5 µM.
Consider `CCC(CC)Cn1ccc2ccc(-c3ccc(S(C)(=O)=O)cc3)nc21` [Example 10], for which the IC50 was not above 0.5 µM.
Take `CS(=O)(=O)c1ccc(-c2ccc3ccn(Cc4ccccc4)c3n2)cc1` [Example 12]: the IC50 was not above 0.5 µM.
Consider `CS(=O)(=O)c1ccc(-c2ccc3ccn(-c4ccc(F)cc4)c3n2)cc1` [Example 13], for which the IC50 was not above 0.5 µM.
Consider `CS(=O)(=O)c1ccc(-c2ccc3ccn(Cc4cccnc4)c3n2)cc1` [Example 14], for which the IC50 is not above 0.5 µM.
For `CS(=O)(=O)c1ccc(-c2ccc3ccn(Cc4ccncc4)c3n2)cc1` [Example 15] the value was not above 0.5 µM; for `CS(=O)(=O)c1ccc(-c2ccc3ccn(Cc4ccccn4)c3n2)cc1` [Example 16], not above 0.5 µM; for `CS(=O)(=O)c1ccc(-c2ccc3ccn(Cc4ccc(Cl)cc4)c3n2)cc1` [Example 18], not above 0.5 µM.
